What was measured:
[1] = test system: older mice; settings: cited from earlier work
[2] = test system: SCD mice; experiment: Effects on SCD mice (globin gene expression by qRT-PCR, F cells in peripheral blood by flow cytometry), Example 8; assay type: in vivo
Method: The effects of the compounds and formulations described in Sections 3.2 and 3.3 on SCD mice are studied using methods adapted from Sun et al., Br J Haematol. 197:97-109 (2022), the disclosure of which is herein incorporated by reference in its entirety. Relative mRNA abundance of PGC-1α and globin gene expression are determined by quantitative real-time polymerase chain reaction (qRT-PC R). HbF-positive cells (F cells) in peripheral blood of treated SCD mice are quantified by flow cytometry

[3] = test system: Ppargc1α (PGC-1α) expression; settings: cited from earlier work
[4] = test system: murine models of neurodegenerative diseases; settings: cited from earlier work
[5] = test system: human primary erythroid progenitor CD34+ cells; settings: cited from earlier work
[6] = Solubility (statement); assay type: physicochemical
Source text: Oral administration is preferred to parenteral administration for chronic life-long treatment, as is required for treating hemoglobinopathies such as sickle cell disease. […] There is a need, therefore, for agents that increase PGC-1α expression that can be administered orally for treatment of hemoglobinopathies such as SCD.

[7] = test system: human primary erythroid progenitor CD34+ cells; experiment: Effects on human primary erythroid progenitor CD34+ cells (F cells by flow cytometry, globin mRNA by qRT-PCR), Example 7; assay type: cell-based; settings: for percentage of HbF-positive cells (F cells): flow cytometry
Method: The effects of the compounds and formulations described in Sections 3.2 and 3.3 hereinabove on human primary erythroid progenitor CD34^+ cells are studies using methods adapted from Sun et al. Sun et al., Br J Haematol. 197:97-109 (2022), the disclosure of which is herein incorporated by reference in its entirety. HbF-positive cells (F cells) are quantified by flow cytometry after compound exposure. Globin gene mRNA abundance is determined by quantitative real-time polymerase chain reaction (qRT-PCR).

[8] = test system: acute systemic immune activation, including cytokine release syndrome (CRS); settings: cited from earlier work
[9] = test system: sickle mice; settings: cited from earlier work

CC(C)(C)c1ccc(-c2nc3ccccc3[nH]2)cc1 [TQS-168, 2-(4-tert-butylphenyl)-1H-benzimidazole]
behavioral dysfunction [1]: alleviate
inflammatory cytokine production in microglia [1]: inhibit
metabolic dysfunction in microglia [1]: suppress
systemic inflammation [1]: suppress
expression of the murine embryonic βh1-globin gene [2]: induce
human γ-globin gene expression [2]: induce
Ppargc1α (PGC-1α) expression [3]: activator
disease severity [4]: reduce
myeloid-mediated inflammation [4]: suppress
cell proliferation and differentiation [5]: without significantly affecting
fetal γ-globin mRNA and protein expression [5]: induce
percentage of HbF-positive cell (F cells) [5]: induce
solubility [6]: poorly soluble
fetal γ-globin mRNA protein expression [7]: induce
percentage of HbF-positive cells (F cells) [7]: induce
acute systemic immune activation, including cytokine release syndrome (CRS) [8]: suppress
expression of the murine embryonic βh1-globin gene [9]: robust expression
γ-globin expression and fetal hemoglobin (HbF) production [9]: induce

CC(C)(C)c1ccc(-c2nc3cc(O)ccc3[nH]2)cc1 [Compound 26, 2-(4-tert-Butylphenyl)-1H-benzo[d]imidazol-5-ol]
expression of the murine embryonic βh1-globin gene [2]: induce
human γ-globin gene expression [2]: induce
fetal γ-globin mRNA protein expression [7]: induce
percentage of HbF-positive cells (F cells) [7]: induce
